Results: US20180353501A1 (Arvinas, Inc., priority 2017, published 2018)

Target: T1, FLAG-p38δ (Homo sapiens, UniProt O15264)
T1 construct: expressed in transfected cells; host or cells: HeLa cells, transient transfection with Lipofectamine 2000
T1 sequence (O15264 1-365): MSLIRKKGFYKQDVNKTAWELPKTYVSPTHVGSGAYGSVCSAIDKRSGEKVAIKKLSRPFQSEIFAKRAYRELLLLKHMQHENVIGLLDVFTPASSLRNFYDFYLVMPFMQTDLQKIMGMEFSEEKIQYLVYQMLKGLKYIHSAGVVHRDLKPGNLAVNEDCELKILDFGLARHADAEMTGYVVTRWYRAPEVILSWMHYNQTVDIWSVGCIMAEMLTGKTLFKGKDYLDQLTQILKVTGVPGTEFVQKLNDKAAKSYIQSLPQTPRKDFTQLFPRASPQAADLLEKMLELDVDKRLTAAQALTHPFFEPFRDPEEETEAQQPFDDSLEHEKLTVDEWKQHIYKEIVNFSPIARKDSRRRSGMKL
Experiment: TUBE1 immunoprecipitation of polyubiquitinated p38δ, HeLa cells
Assay type: cell-based
Conditions: 1 μM, 3 hours
Description: FIG. 18. Exemplary compound 46 induces polyubiquitination of p38δ. (A) HeLa cells were co-transfected with HA-Ub and FLAG p38δ and treated with vehicle (DMSO), 1 μM of compound 50, or 1 μM of compound 46 for 3 hours. Lysates were immunoprecipitated with tandem ubiquitin binding entity (TUBE1) agarose beads and assessed by western blots detecting FLAG (p38δ). TUBE1 binds tetra ubiquitin chains with high affinity, thereby enriching for polyubiquitinated proteins. In this assay, HA (Ub) serves as an immunoprecipitation control for poly-Ub TUBE1 enrichment.
Based on these exemplary compound 50-induced and exemplary compound 46-induced ternary complex affinity differences, both in vitro and in cells, whether they were predictive of PROTAC-induced p38δ cellular ubiquitination was examined.
TUBE1 immunoprecipitation experiments were carried out exactly as described above, except for the fact that 1 mg of normalized HeLa lysate was loaded onto 20 μL TUBE1 agarose (LifeSensors) resin per sample.

TUBE1-reactivity (poly-Ub p38δ): increased TUBE1-reactivity
SMILES: COc1cc2c(Oc3ccc(NC(=O)C4(C(=O)Nc5ccc(F)cc5)CC4)cc3F)ccnc2cc1OCCOCCOCCOc1cc(-c2scnc2C)ccc1CNC(=O)[C@@H]1C[C@@H](O)CN1C(=O)[C@H](C(C)C)N1Cc2ccccc2C1=O [compound 46]
